{"source": "paper PMC8842277", "about": "“Highly Antiproliferative Latonduine and Indolo[2,3-c]quinoline Derivatives: Complex Formation with Copper(II) Markedly Changes the Kinase Inhibitory Profile” (Journal of Medicinal Chemistry, 2022)", "key": {"calf thymus DNA (ct-DNA)": {"tested_on": "calf thymus DNA (ct-DNA)", "assay": "Ethidium bromide displacement and fluorescence lifetime", "assay_type": "binding", "details": "10 μM ct-DNA, 5 μM EtBr, 10 mM HEPES, pH 7.40", "protocol": "The interaction of 4 and 8 and HL^4 and HL^8 with ct-DNA was investigated by spectrofluorometry in ethidium bromide (EtBr) displacement studies. EtBr is a fluorescent probe, and its fluorescence intensity increases upon intercalation into the DNA helix. […] Decrease in the fluorescence may indicate (i) the displacement of EtBr or (ii) (partial) quenching of the fluorescence of the bound probe. In order to separate these processes, fluorescence lifetime measurements were carried out. […] In addition, they provided evidence that the two copper(II) complexes bind to ct-DNA. However, complex 8 replaced EtBr more effectively than 4. […]\nFluorescence measurements were carried out on a Fluoromax (Horiba Jobin Yvon) fluorometer. […] The excitation wavelengths were 510 or 455 nm, and the fluorescence emission was measured in the range 530–750 nm. Corrections for self-absorbance and inner filter effect were done according to our former work.[106] Fluorescence lifetime was measured on the same fluorometer equipped with a DeltaHub time-correlated single photon counting (TCSPC) controller using a NanoLED light source N-455 (Horiba Jobin Yvon). […] The fluorescence intensity decay over time is described by a sum of exponentials, [drawing 3] […] Fractional intensities were calculated as described in our former work.[105] […]"}, "CK2": {"biological_target": "CK2 (Homo sapiens, UniProt P68400)", "sequence (P68400 whole entry)": "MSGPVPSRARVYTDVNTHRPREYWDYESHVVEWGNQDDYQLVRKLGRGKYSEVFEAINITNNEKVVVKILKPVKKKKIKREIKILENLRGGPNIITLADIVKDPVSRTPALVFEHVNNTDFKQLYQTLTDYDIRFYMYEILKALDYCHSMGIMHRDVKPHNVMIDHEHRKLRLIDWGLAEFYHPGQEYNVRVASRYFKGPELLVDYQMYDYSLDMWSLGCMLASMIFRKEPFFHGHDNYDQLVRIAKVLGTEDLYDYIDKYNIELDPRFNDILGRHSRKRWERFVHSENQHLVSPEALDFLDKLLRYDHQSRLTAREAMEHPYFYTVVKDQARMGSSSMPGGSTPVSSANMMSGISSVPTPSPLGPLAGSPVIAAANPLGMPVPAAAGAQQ", "assay": "Kinase panel screen", "assay_type": "biochemical", "details": "10 µM compound", "source_text": "(§1) Figure 7 (see also Table S4) summarizes the results of this assay as a histogram plotting the percentage of the remaining enzyme activity (x-axis) as a function of added lead compound (HL^8: blue trace, 8: red trace) for each of the 50 enzymes assayed (y-axis). […] Thus, the coordination to copper(II) completely changes the kinase inhibition profile of HL^8.\n(§2) Figure 7 Screening of HL^8 and 8 against 50 enzymes: histogram with % remaining activity on the x-axis plotted against the compound identifier (blue trace: HL^8 and red trace: 8) and enzyme identifier on the […]. The screen was carried out at a compound concentration of 10 μM, an enzyme concentration of 50 nM, and an ATP concentration of 100 μM.\n(§3) All kinase assays were carried out using Multidrop 384’s at room temperature in a total assay volume of 25.5 μL. To plates containing 0.5 μL of HL^8 and 8, DMSO control or acid blank […], 15 μL of an enzyme mix containing enzyme […], and excess peptide/protein substrate in buffer was added. Compounds were pre-incubated in the presence of the enzyme and peptide/protein substrate for 5 min before initiation of the reaction by addition of 10 μL of ATP (final concentration selected for each kinase at 5, 20, or 50 μM). Assays were carried out for 30 min at room temperature before termination by the addition of 5 μL of orthophosphoric acid. The assay plates were then harvested onto P81 Unifilter Plates by a PerkinElmer Harvester and air dried. The dry Unifilter plates were then sealed on the addition of MicroScint O and were counted in PerkinElmer Topcount scintillation counters."}, "HIPK2": {"biological_target": "HIPK2 (Homo sapiens, UniProt Q9H2X6)", "sequence (Q9H2X6 whole entry)": "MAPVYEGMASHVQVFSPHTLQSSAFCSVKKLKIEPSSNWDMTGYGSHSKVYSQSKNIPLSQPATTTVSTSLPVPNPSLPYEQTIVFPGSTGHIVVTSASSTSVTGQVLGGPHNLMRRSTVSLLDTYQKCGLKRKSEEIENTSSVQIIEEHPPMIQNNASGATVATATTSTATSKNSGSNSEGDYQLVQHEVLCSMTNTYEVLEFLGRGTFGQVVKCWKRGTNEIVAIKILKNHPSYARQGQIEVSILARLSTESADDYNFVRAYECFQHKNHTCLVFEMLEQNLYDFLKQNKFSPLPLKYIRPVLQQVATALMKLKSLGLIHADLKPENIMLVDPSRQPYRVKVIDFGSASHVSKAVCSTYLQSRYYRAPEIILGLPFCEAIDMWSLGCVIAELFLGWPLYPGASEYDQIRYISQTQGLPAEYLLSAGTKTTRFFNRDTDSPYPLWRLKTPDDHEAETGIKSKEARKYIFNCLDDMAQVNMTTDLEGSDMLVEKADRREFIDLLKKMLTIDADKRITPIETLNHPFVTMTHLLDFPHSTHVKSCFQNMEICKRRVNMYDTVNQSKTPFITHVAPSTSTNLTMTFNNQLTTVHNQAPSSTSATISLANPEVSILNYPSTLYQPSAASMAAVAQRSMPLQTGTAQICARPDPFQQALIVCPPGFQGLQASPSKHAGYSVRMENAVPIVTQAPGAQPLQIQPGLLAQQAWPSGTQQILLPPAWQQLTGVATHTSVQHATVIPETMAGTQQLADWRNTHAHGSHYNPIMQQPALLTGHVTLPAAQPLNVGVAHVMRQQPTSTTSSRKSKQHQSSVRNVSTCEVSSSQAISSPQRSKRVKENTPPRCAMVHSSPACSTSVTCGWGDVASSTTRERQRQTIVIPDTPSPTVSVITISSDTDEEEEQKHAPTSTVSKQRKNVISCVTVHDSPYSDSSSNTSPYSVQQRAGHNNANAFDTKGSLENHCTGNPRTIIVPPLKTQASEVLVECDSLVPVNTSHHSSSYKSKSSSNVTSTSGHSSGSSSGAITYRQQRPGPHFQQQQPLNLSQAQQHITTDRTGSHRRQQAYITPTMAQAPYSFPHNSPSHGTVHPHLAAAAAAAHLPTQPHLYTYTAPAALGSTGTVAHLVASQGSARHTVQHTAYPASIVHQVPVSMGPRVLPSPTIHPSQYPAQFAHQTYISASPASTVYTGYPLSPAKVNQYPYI", "assay": "Kinase panel screen", "assay_type": "biochemical", "details": "10 µM compound", "source_text": "as §1, §2, §3"}, "IRAK4": {"biological_target": "IRAK4 (Homo sapiens, UniProt Q9NWZ3)", "sequence (Q9NWZ3 whole entry)": "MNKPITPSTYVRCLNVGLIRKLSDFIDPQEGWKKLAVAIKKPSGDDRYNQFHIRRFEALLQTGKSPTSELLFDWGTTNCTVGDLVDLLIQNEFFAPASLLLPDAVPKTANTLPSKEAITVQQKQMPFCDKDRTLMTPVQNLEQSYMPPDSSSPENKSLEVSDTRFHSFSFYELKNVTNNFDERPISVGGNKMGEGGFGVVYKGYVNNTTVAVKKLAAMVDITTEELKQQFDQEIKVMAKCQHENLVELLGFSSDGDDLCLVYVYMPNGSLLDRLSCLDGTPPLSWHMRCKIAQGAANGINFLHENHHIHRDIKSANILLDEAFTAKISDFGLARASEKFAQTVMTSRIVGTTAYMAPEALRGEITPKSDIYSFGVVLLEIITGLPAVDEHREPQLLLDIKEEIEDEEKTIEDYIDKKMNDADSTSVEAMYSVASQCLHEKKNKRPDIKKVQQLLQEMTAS", "assay": "Kinase panel screen", "assay_type": "biochemical", "details": "10 µM compound", "source_text": "as §1, §2, §3"}, "MKK1": {"biological_target": "MKK1 (Homo sapiens, UniProt Q02750)", "assay": "Kinase panel screen", "assay_type": "biochemical", "details": "10 µM compound", "source_text": "as §1, §2, §3"}, "TBK1": {"biological_target": "TBK1 (Homo sapiens, UniProt Q9UHD2)", "assay": "Kinase panel screen", "assay_type": "biochemical", "details": "10 µM compound", "source_text": "as §1, §2, §3"}, "TTK": {"biological_target": "TTK (Homo sapiens, UniProt P33981)", "sequence (P33981 whole entry)": "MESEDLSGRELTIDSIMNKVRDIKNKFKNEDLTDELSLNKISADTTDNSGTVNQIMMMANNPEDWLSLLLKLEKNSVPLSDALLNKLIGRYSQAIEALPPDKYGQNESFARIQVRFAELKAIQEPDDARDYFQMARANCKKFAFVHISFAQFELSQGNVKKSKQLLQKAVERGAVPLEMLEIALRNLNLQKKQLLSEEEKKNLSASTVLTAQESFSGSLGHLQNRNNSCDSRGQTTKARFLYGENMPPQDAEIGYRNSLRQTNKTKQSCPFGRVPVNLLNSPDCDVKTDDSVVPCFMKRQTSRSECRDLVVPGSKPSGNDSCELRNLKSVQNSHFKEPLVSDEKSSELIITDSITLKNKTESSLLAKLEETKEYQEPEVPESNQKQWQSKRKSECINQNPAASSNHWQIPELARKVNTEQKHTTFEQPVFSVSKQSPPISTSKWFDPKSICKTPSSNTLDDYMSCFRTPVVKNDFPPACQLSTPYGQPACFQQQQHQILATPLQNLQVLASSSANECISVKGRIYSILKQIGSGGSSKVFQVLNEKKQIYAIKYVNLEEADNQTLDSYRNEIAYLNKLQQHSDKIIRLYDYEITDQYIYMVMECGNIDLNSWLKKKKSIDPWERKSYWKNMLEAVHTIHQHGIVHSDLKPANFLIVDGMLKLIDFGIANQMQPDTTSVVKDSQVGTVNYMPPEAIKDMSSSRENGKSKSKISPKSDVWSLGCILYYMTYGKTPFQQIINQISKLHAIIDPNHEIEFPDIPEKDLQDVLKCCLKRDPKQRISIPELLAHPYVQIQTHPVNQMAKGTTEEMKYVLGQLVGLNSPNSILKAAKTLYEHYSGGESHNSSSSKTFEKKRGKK", "assay": "Kinase panel screen", "assay_type": "biochemical", "details": "10 µM compound", "source_text": "as §1, §2, §3"}, "CaMK-1": {"biological_target": "CaMK-1 (Homo sapiens, UniProt Q14012)", "assay": "Kinase panel screen and IC50", "assay_type": "biochemical", "source_text": "as §1, §2\n(§4) Both compounds were screened against the respective enzymes, and IC50 values were determined.\nas §3\n(§5) IC50 values were determined by the International Centre for Kinase Profiling at the University of Dundee according to standard protocols published elsewhere.[109],[110]"}, "GSK3β": {"biological_target": "GSK3β (Homo sapiens, UniProt P49841)", "sequence (P49841 whole entry)": "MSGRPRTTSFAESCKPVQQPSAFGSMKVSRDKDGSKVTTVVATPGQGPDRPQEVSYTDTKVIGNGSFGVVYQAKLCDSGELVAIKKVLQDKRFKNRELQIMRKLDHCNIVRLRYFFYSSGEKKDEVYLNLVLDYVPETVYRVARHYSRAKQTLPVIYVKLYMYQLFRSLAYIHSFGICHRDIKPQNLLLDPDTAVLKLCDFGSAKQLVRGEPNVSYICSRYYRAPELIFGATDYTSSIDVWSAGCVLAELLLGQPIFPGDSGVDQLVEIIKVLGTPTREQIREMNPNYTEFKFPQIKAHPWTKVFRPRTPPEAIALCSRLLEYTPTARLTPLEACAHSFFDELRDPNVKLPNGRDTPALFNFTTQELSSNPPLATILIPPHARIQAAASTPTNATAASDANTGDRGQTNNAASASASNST", "assay": "Kinase panel screen and IC50", "assay_type": "biochemical", "source_text": "as §1, §2, §4, §3, §5"}, "MSK1": {"biological_target": "MSK1 (Homo sapiens, UniProt O75582)", "sequence (O75582 whole entry)": "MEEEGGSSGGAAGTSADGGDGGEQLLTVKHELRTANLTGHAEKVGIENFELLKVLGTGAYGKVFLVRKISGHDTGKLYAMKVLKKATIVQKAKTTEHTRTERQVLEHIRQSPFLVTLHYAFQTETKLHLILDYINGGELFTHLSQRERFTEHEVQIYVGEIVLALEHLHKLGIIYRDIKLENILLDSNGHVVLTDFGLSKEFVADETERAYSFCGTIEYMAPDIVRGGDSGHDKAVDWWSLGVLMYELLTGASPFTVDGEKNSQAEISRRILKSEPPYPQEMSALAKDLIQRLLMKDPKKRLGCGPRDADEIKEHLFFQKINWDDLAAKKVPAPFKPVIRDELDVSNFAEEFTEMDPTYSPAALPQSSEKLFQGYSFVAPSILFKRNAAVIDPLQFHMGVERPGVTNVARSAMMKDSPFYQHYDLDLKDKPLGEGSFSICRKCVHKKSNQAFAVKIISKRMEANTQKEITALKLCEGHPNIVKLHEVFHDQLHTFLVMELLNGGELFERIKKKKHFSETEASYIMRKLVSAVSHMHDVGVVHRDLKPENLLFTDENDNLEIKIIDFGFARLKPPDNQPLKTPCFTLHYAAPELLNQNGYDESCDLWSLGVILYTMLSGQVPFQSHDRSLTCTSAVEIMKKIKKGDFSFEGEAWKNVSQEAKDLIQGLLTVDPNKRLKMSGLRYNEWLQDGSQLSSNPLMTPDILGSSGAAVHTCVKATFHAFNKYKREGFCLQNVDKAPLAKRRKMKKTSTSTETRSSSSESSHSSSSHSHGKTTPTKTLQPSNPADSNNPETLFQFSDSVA", "assay": "Kinase panel screen and IC50", "assay_type": "biochemical", "source_text": "as §1, §2, §4, §3, §5"}, "PIM1": {"biological_target": "PIM1 (Homo sapiens, UniProt P11309)", "sequence (P11309 whole entry)": "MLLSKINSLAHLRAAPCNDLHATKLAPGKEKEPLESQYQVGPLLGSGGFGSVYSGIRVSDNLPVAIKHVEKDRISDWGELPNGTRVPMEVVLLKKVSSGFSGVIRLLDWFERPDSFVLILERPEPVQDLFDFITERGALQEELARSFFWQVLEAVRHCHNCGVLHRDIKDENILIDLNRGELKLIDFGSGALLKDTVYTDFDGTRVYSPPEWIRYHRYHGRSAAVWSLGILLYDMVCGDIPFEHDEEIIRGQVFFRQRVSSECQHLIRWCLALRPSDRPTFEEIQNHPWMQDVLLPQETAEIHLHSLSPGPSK", "assay": "Kinase panel screen and IC50", "assay_type": "biochemical", "source_text": "as §1, §2, §4, §3, §5"}, "PKA": {"biological_target": "PKA (Homo sapiens, UniProt P17612)", "assay": "Kinase panel screen and IC50", "assay_type": "biochemical", "source_text": "as §1, §2, §4, §3, §5"}, "SGK-1": {"biological_target": "SGK-1 (Homo sapiens, UniProt O00141)", "sequence (O00141 whole entry)": "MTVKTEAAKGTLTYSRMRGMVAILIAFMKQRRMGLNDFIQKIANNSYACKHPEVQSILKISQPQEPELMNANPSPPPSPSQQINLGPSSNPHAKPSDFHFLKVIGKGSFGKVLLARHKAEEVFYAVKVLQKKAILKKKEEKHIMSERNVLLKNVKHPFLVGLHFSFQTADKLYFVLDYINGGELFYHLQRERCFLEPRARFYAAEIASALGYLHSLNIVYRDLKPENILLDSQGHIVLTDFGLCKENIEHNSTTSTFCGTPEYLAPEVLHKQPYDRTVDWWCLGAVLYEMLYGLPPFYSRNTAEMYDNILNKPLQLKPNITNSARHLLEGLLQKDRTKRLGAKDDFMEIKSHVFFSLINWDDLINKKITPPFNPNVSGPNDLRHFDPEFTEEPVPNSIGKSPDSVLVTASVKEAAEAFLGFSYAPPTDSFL", "assay": "Kinase panel screen and IC50", "assay_type": "biochemical", "source_text": "as §1, §2, §4, §3, §5"}}, "data": [{"smiles": "CC(=NNc1nc2ccccc2c2c1[nH]c1ccc(Br)cc12)c1ccc(CN2CCOCC2)cn1.[Cl][Cu][Cl]", "note": "[compound 8, CuCl2(HL^8)·H2O]", "values": [{"measurement": "Effect on fluorescence of the EtBr–ct-DNA system", "setting": "calf thymus DNA (ct-DNA)", "result": "decreased the emission intensity"}, {"measurement": "% remaining activity", "setting": "CK2", "result": 79, "unit": "%"}, {"measurement": "% remaining activity", "setting": "HIPK2", "result": 108, "unit": "%"}, {"measurement": "% remaining activity", "setting": "IRAK4", "result": 105, "unit": "%"}, {"measurement": "% remaining activity", "setting": "MKK1", "result": 94, "unit": "%"}, {"measurement": "% remaining activity", "setting": "TBK1", "result": 76, "unit": "%"}, {"measurement": "% remaining activity", "setting": "TTK", "result": 64, "unit": "%"}, {"measurement": "% remaining activity", "setting": "CaMK-1; CaMK-1, 10 µM compound", "result": 9, "unit": "%"}, {"measurement": "IC50", "setting": "CaMK-1; read-out: IC50 against CaMK-1", "result": 0.75, "unit": "µM"}, {"measurement": "% remaining activity", "setting": "GSK3β; GSK3β, 10 µM compound", "result": 32, "unit": "%"}, {"measurement": "IC50", "setting": "GSK3β; read-out: IC50 against GSK3β", "result": 1.64, "unit": "µM"}, {"measurement": "% remaining activity", "setting": "MSK1; MSK1, 10 µM compound", "result": 17, "unit": "%"}, {"measurement": "IC50", "setting": "MSK1; read-out: IC50 against MSK1", "result": 2.97, "unit": "µM"}, {"measurement": "IC50 against PIM-1", "setting": "PIM1", "result": "did not register binding"}, {"measurement": "% remaining activity", "setting": "PIM1; PIM1, 10 µM compound", "result": 72, "unit": "%"}, {"measurement": "% remaining activity", "setting": "PKA; PKA, 10 µM compound", "result": 10, "unit": "%"}, {"measurement": "IC50", "setting": "PKA; read-out: IC50 against PKA", "result": 6.69, "unit": "µM"}, {"measurement": "% remaining activity", "setting": "SGK-1; SGK-1, 10 µM compound", "result": 5, "unit": "%"}, {"measurement": "IC50", "setting": "SGK-1; read-out: IC50 against SGK-1", "result": 8.45, "unit": "µM"}]}, {"smiles": "CC(=NNC1=NCc2ccccc2-c2c1[nH]c1ccc(Br)cc21)c1ccc(CN2CCOCC2)cn1.[Cl][Cu][Cl]", "note": "[compound 4, CuCl2(HL^4)·0.5H2O]", "values": [{"measurement": "Effect on fluorescence of the EtBr–ct-DNA system", "setting": "calf thymus DNA (ct-DNA)", "result": "decreased the emission intensity"}]}]}
